Data from patent US12258327B2, “5-membered heteroaryl-containing aminopyridine compounds as EGFR inhibitors” (YUHAN CORPORATION, priority 2021, dated 2025).
Where two headings read alike, the source gives them in different places.

Tests used:
EGFR L858R/T790M/C797S = EGFR L858R/T790M/C797S (Homo sapiens, UniProt P00533, C797S/L858R/T790M); assay: Biochemical EGFR kinase assay (Lance Ultra TR-FRET), triple mutant L858R/T790M/C797S
Procedure, shortened: (§1)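 Enzyme reactions lasted 1 hour at room temperature with test compounds between 0.003 and 10 μM, followed by 10 mM EDTA quench.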

EGFR L858R/C797S = EGFR L858R/C797S (Homo sapiens, UniProt P00533, C797S/L858R); assay: Biochemical EGFR kinase assay (Lance Ultra TR-FRET), double mutant L858R/C797S
Procedure, shortened: as §1

EGFR wildtype (WT) = EGFR wildtype (WT) (Homo sapiens, UniProt P00533); assay: Biochemical EGFR kinase assay (Lance Ultra TR-FRET), wildtype
Procedure, shortened: as §1

EGFR del19/T790M/C797S = EGFR del19/T790M/C797S (Homo sapiens, UniProt P00533, C797S/DEL746-750/T790M); assay: Biochemical EGFR kinase assay (Lance Ultra TR-FRET), triple mutant del19/T790M/C797S
Procedure, shortened: as §1

EGFR del19/C797S = EGFR del19/C797S (Homo sapiens, UniProt P00533, C797S/DEL746-750); assay: Biochemical EGFR kinase assay (Lance Ultra TR-FRET), double mutant del19/C797S
Procedure, shortened: as §1

[1] = IC50 L858R/T790M/C797S (nM) 100 μM ATP, 100 μM ATP
[2] = Km ATP, read-out: IC50 L858R/T790M/C797S (nM) Km ATP
[3] = IC50 L858R/C797S (nM) 100 μM ATP, 100 μM ATP
[4] = Km ATP, read-out: IC50 L858R/C797S (nM) Km ATP
[5] = IC50 WT (nM) 100 μM ATP, 100 μM ATP
[6] = Km ATP, read-out: IC50 WT (nM) Km ATP
[7] = IC50 del19/T790M/C797S (nM) 100 μM ATP, 100 μM ATP
[8] = Km ATP, read-out: IC50 del19/T790M/C797S (nM) Km ATP
[9] = IC50 del19/C797S (nM) 100 μM ATP, 100 μM ATP
[10] = Km ATP, read-out: IC50 del19/C797S (nM) Km ATP
[11] = Km ATP, read-out: IC50 L858R/T790M/C797S, Km ATP
[12] = Km ATP, read-out: IC50 L858R/C797S, Km ATP
[13] = Km ATP, read-out: IC50 WT, Km ATP
[14] = Km ATP, read-out: IC50 del19/T790M/C797S, Km ATP
[15] = Km ATP, read-out: IC50 del19/C797S, Km ATP

Chain of EGFR L858R/T790M/C797S (P00533 25-1210 T790M/C797S/L858R): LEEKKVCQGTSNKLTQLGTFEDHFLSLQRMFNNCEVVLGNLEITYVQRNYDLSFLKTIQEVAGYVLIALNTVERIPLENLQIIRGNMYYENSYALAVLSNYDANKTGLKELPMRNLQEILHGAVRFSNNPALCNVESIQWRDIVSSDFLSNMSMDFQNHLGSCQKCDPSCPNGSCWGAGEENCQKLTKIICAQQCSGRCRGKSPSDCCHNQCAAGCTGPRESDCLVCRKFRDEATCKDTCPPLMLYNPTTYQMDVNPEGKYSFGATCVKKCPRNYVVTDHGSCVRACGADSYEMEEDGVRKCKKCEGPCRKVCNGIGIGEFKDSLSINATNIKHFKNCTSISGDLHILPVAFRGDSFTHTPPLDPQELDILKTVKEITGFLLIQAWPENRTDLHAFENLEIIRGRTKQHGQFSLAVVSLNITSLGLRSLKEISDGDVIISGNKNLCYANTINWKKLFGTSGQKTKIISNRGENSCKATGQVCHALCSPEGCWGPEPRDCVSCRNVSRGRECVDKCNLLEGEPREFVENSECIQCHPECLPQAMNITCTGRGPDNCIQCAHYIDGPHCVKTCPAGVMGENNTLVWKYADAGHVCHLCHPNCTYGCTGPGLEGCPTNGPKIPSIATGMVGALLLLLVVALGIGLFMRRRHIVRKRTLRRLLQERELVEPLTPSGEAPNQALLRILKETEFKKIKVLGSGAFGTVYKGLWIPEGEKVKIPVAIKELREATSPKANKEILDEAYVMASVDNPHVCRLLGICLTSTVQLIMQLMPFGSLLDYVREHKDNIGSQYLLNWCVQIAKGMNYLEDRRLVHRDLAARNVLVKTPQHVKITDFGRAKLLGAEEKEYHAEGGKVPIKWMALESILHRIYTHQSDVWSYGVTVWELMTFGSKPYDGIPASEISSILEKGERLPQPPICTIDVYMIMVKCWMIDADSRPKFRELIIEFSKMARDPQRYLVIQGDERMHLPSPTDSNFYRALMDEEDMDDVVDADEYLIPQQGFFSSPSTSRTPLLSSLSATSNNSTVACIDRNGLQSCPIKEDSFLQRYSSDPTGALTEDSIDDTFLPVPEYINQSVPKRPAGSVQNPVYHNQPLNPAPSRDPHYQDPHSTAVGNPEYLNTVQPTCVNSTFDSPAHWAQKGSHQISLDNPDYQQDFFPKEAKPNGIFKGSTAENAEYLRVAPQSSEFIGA
Chain of EGFR del19/C797S (P00533 with tags, fused parts or gaps DEL746-750/C797S): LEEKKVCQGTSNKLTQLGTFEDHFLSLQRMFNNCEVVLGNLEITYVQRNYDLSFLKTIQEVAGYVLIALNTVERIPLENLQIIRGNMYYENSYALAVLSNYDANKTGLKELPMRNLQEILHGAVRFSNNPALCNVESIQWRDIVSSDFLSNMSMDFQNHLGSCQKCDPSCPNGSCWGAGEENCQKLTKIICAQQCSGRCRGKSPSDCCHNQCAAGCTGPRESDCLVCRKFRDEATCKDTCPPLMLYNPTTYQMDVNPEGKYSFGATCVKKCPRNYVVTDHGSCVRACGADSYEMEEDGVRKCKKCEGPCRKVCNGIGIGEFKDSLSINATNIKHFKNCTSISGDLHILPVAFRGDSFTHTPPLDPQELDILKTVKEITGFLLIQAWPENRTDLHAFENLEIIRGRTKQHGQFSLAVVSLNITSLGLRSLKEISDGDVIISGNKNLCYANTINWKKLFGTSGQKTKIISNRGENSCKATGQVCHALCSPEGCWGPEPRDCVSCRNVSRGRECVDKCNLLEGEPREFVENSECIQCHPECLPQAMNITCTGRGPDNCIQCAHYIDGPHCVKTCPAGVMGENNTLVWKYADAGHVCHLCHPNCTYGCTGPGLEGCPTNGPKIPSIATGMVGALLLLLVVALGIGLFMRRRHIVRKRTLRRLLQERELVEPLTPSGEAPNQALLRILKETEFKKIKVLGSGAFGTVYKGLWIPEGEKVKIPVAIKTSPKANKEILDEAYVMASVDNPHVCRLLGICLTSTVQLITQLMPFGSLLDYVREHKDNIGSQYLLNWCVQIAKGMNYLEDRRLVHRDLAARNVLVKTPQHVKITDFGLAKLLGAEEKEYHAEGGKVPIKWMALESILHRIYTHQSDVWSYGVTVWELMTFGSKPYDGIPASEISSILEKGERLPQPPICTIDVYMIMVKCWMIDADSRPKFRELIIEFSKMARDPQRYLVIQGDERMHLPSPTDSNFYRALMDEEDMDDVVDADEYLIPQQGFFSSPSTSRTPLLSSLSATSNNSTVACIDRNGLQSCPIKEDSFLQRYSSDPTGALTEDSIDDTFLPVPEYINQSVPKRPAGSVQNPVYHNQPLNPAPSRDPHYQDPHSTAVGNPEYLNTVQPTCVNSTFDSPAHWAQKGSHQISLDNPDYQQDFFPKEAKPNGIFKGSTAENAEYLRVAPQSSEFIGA
Chain of EGFR del19/T790M/C797S (P00533 with tags, fused parts or gaps DEL746-750/T790M/C797S): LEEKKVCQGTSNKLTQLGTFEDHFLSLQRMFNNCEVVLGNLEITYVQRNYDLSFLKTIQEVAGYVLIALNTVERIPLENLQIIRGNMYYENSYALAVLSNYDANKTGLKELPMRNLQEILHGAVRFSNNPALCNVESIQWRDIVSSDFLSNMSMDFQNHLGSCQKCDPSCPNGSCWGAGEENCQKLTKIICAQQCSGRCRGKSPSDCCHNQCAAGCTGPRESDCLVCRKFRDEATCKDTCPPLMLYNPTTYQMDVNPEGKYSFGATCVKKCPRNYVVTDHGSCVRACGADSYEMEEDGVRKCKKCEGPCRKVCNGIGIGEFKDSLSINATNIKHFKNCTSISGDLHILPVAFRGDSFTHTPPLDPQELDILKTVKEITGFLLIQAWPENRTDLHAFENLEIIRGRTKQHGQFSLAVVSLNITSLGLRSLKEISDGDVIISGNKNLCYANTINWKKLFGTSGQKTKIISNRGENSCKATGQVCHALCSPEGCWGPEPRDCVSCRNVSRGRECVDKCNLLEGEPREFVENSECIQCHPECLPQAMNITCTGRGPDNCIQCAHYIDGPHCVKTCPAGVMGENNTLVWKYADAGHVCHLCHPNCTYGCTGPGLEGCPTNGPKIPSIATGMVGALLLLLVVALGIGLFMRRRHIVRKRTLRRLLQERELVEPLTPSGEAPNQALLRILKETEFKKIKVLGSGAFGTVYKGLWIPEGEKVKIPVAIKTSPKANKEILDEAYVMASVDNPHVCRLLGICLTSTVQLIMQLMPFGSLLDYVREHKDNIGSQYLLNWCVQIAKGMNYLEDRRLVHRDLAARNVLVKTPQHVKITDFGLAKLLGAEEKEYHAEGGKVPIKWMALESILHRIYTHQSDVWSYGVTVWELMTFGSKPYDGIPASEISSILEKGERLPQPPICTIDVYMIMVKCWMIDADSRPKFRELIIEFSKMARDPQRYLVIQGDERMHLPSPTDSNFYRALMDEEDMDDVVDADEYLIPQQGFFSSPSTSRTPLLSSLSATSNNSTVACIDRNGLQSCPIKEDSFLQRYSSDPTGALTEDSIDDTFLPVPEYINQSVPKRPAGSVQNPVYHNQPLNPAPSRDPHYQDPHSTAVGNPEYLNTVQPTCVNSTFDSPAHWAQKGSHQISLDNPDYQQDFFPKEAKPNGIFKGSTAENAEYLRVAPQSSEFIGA
Chain of EGFR wildtype (WT) (P00533 25-1210): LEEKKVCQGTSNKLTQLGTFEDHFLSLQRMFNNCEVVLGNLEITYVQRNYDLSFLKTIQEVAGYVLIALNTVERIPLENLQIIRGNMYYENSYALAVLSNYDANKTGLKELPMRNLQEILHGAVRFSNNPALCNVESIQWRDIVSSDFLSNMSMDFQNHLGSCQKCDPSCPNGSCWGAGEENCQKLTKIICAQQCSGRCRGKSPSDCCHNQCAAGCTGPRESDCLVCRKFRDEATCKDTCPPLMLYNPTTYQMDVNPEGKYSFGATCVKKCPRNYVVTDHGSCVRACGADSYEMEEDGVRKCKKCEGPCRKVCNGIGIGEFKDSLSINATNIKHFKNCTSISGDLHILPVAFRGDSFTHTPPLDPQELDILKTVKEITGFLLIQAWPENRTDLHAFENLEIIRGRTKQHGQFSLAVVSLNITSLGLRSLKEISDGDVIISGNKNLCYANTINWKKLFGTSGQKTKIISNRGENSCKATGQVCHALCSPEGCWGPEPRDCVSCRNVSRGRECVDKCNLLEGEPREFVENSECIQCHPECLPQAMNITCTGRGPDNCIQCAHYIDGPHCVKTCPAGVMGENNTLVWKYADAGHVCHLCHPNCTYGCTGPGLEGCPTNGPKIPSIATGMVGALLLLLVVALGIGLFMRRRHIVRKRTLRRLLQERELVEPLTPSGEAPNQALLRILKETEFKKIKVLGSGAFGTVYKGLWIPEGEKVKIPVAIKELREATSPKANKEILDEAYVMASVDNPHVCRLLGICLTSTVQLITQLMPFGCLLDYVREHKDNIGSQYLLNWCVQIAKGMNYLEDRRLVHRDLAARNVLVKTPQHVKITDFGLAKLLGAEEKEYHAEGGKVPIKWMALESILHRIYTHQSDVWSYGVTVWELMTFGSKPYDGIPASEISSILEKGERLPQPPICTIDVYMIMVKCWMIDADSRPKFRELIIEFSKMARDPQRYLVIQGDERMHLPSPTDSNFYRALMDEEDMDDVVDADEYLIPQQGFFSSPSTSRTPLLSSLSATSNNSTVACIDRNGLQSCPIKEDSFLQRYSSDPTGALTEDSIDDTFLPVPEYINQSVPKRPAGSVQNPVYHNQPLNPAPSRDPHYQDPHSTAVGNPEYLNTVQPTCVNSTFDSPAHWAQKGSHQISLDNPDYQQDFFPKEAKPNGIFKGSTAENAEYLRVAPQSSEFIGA

Row | SMILES | IC50 (EGFR L858R/T790M/C797S; [1]) [nM] | IC50 (EGFR L858R/T790M/C797S; [2]) [nM] | IC50 (EGFR L858R/C797S; [3]) [nM] | IC50 (EGFR L858R/C797S; [4]) [nM] | IC50 (EGFR wildtype (WT); [5]) [nM] | IC50 (EGFR wildtype (WT); [6]) [nM] | IC50 (EGFR del19/T790M/C797S; [7]) [nM] | IC50 (EGFR del19/T790M/C797S; [8]) [nM] | IC50 (EGFR del19/C797S; [9]) [nM] | IC50 (EGFR del19/C797S; [10]) [nM] | IC50 (EGFR L858R/T790M/C797S; [11]) [nM] | IC50 (EGFR L858R/C797S; [12]) [nM] | IC50 (EGFR wildtype (WT); [13]) [nM] | IC50 (EGFR del19/T790M/C797S; [14]) [nM] | IC50 (EGFR del19/C797S; [15]) [nM]
1 | Cn1cc(-c2nccc(Nc3cc(N[C@H]4CC[C@@](C)(O)CC4)c(-c4ccn(C(F)F)n4)cn3)n2)cn1 [Example 139, (1s,4s)-4-((5-(1-(Difluoromethyl)-1H-pyrazol-3-yl)-2-((2-(1-methyl-1H-pyrazol-4-yl)pyrimidin-4-yl)amino)pyridin-4-yl)amino)-1-methylcyclohexan-1-ol] | 5.2 | 0.8 | 165 | 57.1 | > 10000 | 61 | 1.1 | 1.7 | 99.1 | 50.2 | – | – | – | – | –
2 | O=S(=O)(C1CC1)n1cc(-c2nccc(Nc3cc(N[C@H]4CC[C@@H](C(F)F)CC4)c(-c4ccn(C(F)F)n4)cn3)n2)cn1 [Example 157, N^2-(2-(1-(Cyclopropylsulfonyl)-1H-pyrazol-4-yl)pyrimidin-4-yl)-5-(1-(difluoromethyl)-1H-pyrazol-3-yl)-N^4-((1s,4s)-4-(difluoromethyl)cyclohexyl)pyridine-2,4-diamine] | – | 9.7 | – | 55.7 | – | 408 | – | 30.9 | – | 125 | – | – | – | – | –
3 | CC(C)(O)[C@H]1CC[C@@H](Nc2cc(Nc3ccnc(-c4cnn(S(=O)(=O)C5CC5)c4)n3)ncc2-c2ccn(C(F)F)n2)CC1 [Example 8, 2-((1s,4s)-4-((2-((2-(1-(Cyclopropylsulfonyl)-1H-pyrazol-4-yl)pyrimidin-4-yl)amino)-5-(1-(difluoromethyl)-1H-pyrazol-3-yl)pyridin-4-yl)amino)cyclohexyl)propan-2-ol] | 5.7 | – | 21.9 | – | > 10000 | – | 5.5 | – | 18.8 | – | – | – | – | – | –
4 | C[C@]1(O)CC[C@@H](Nc2cc(Nc3ccnc(-c4cnn(S(=O)(=O)N5CCCC5)c4)n3)ncc2-c2ccn(C(F)F)n2)CC1 [Example 323, (1s,4s)-4-((5-(1-(Difluoromethyl)-1H-pyrazol-3-yl)-2-((2-(1-(pyrrolidin-1-ylsulfonyl)-1H-pyrazol-4-yl)pyrimidin-4-yl)amino)pyridin-4-yl)amino)-1-methylcyclohexan-1-ol] | – | 4.6 | – | 143 | – | 466 | – | 10.4 | – | 1060 | – | – | – | – | –
5 | Cn1nc(-c2cnc(Nc3ccnc(-c4cnn(S(=O)(=O)C5CC5)c4)c3)nc2N[C@H]2CC[C@@](C)(O)CC2)cc1C(F)(F)F [Example 356, (1s,4s)-4-((2-((2-(1-(Cyclopropylsulfonyl)-1H-pyrazol-4-yl)pyridin-4-yl)amino)-5-(1-methyl-5-(trifluoromethyl)-1H-pyrazol-3-yl)pyrimidin-4-yl)amino)-1-methylcyclohexan-1-ol] | – | – | – | – | – | – | – | – | – | – | 1.8 | 12.1 | 96.6 | 1.1 | 9.8
6 | COc1ncc(-c2nccc(Nc3cc(N[C@H]4CC[C@@](C)(O)CC4)c(-c4ccn(C(F)F)n4)cn3)n2)cc1F [Example 178, (1s,4s)-4-((5-(1-(Difluoromethyl)-1H-pyrazol-3-yl)-2-((2-(5-fluoro-6-methoxypyridin-3-yl)pyrimidin-4-yl)amino)pyridin-4-yl)amino)-1-methylcyclohexan-1-ol] | – | 16.8 | – | 3 | – | 2110 | – | 46.2 | – | 102 | – | – | – | – | –
7 | CNC1CCC(Nc2cc(Nc3ccnc(-c4cnn(S(=O)(=O)C5CC5)c4)n3)ncc2-c2ccn(C(F)F)n2)CC1 (centres unmarked) [Example 16, N^2-(2-(1-(Cyclopropylsulfonyl)-1H-pyrazol-4-yl)pyrimidin-4-yl)-5-(1-(difluoromethyl)-1H-pyrazol-3-yl)-N^4-((1s,4s)-4-(methylamino)cyclohexyl)pyridine-2,4-diamine] | 0.3 | – | 2.1 | – | 3390 | – | 0.3 | – | 2 | – | – | – | – | – | –
8 | C[C@]1(O)CCCN(c2cc(Nc3ccnc(-c4cnn(S(=O)(=O)C5CC5)c4)n3)ncc2-c2ccn(C(F)F)n2)C1 [Example 107, (S)-1-(2-((2-(1-(Cyclopropylsulfonyl)-1H-pyrazol-4-yl)pyrimidin-4-yl)amino)-5-(1-(difluoromethyl)-1H-pyrazol-3-yl)pyridin-4-yl)-3-methylpiperidin-3-ol] | 4.6 | – | 346 | – | > 10000 | – | 2.7 | – | 113 | – | – | – | – | – | –
9 | OCC[C@H]1CC[C@@H](Nc2cc(Nc3ccnc(-c4cnn(CC(F)F)c4)n3)ncc2-c2ccn(CC(F)(F)F)n2)CC1 [Example 338, 2-((1s,4s)-4-((2-((2-(1-(2,2-Difluoroethyl)-1H-pyrazol-4-yl)pyrimidin-4-yl)amino)-5-(1-(2,2,2-trifluoroethyl)-1H-pyrazol-3-yl)pyridin-4-yl)amino)cyclohexyl)ethan-1-ol] | – | – | – | – | – | – | – | – | – | – | 0.4 | 3.9 | 45.1 | 0.7 | 13.2
10 | C[C@]1(O)CC[C@@H](Nc2cc(Nc3ccnc(-c4ccc(F)nc4F)n3)ncc2-c2ccn(C(F)F)n2)CC1 [Example 170, (1s,4s)-4-((5-(1-(Difluoromethyl)-1H-pyrazol-3-yl)-2-((2-(2,6-difluoropyridin-3-yl)pyrimidin-4-yl)amino)pyridin-4-yl)amino)-1-methylcyclohexan-1-ol] | – | 16.9 | – | 814 | – | 1980 | – | 49.7 | – | 1340 | – | – | – | – | –
11 | C[C@]1(O)CC[C@@H](Nc2cc(Nc3ccnc(-c4cnn(S(=O)(=O)N5CC(F)C5)c4)n3)ncc2-c2ccn(C(F)F)n2)CC1 [Example 324, (1s,4s)-4-((5-(1-(Difluoromethyl)-1H-pyrazol-3-yl)-2-((2-(1-((3-fluoroazetidin-1-yl)sulfonyl)-1H-pyrazol-4-yl)pyrimidin-4-yl)amino)pyridin-4-yl)amino)-1-methylcyclohexan-1-ol] | – | 1.7 | – | 13.2 | – | 55.5 | – | 4.6 | – | 66.9 | – | – | – | – | –

Continued, values first:

Row | IC50 (EGFR L858R/T790M/C797S; [1]) [nM] | IC50 (EGFR L858R/T790M/C797S; [2]) [nM] | IC50 (EGFR L858R/C797S; [3]) [nM] | IC50 (EGFR L858R/C797S; [4]) [nM] | IC50 (EGFR wildtype (WT); [5]) [nM] | IC50 (EGFR wildtype (WT); [6]) [nM] | IC50 (EGFR del19/T790M/C797S; [7]) [nM] | IC50 (EGFR del19/T790M/C797S; [8]) [nM] | IC50 (EGFR del19/C797S; [9]) [nM] | IC50 (EGFR del19/C797S; [10]) [nM] | IC50 (EGFR L858R/T790M/C797S; [11]) [nM] | IC50 (EGFR L858R/C797S; [12]) [nM] | IC50 (EGFR wildtype (WT); [13]) [nM] | IC50 (EGFR del19/T790M/C797S; [14]) [nM] | IC50 (EGFR del19/C797S; [15]) [nM] | SMILES
12 | 0.4 | 0.2 | 4.2 | 0.9 | 3140 | 3.6 | 0.5 | 0.4 | 1.3 | 0.5 | – | – | – | – | – | Cn1ccc(-c2cnc(Nc3ccnc(-c4cnn(S(=O)(=O)C5CC5)c4)n3)cc2N[C@H]2CCC[C@H](CO)C2)n1 [Example 233, ((1S,3S)-3-((2-((2-(1-(Cyclopropylsulfonyl)-1H-pyrazol-4-yl)pyrimidin-4-yl)amino)-5-(1-methyl-1H-pyrazol-3-yl)pyridin-4-yl)amino)cyclohexyl)methanol]
13 | – | 0.2 | 51.9 | 3.1 | > 10000 | 21.1 | 0.9 | 0.3 | 3.4 | 1 | – | – | – | – | – | O=S(=O)(C1CC1)n1cc(-c2nccc(Nc3cc(N[C@H]4CC[C@H](O)C4)c(-c4ccn(C(F)F)n4)cn3)n2)cn1 [Example 20, (1S,3S)-3-((2-((2-(1-(Cyclopropylsulfonyl)-1H-pyrazol-4-yl)pyrimidin-4-yl)amino)-5-(1-(difluoromethyl)-1H-pyrazol-3-yl)pyridin-4-yl)amino)cyclopentan-1-ol]
14 | 3.9 | 1.1 | 63.3 | 1.6 | > 10000 | 65.3 | 2.2 | 2.6 | 35.1 | 15.7 | – | – | – | – | – | CN(C)S(=O)(=O)n1cc(-c2nccc(Nc3cc(N[C@H]4CC[C@@](C)(O)CC4)c(-c4cc(C(F)(F)F)n(C)n4)cn3)n2)cn1 [Example 330, 4-(4-((4-(((1s,4s)-4-Hydroxy-4-methylcyclohexyl)amino)-5-(1-methyl-5-(trifluoromethyl)-1H-pyrazol-3-yl)pyridin-2-yl)amino)pyrimidin-2-yl)-N,N-dimethyl-1H-pyrazole-1-sulfonamide]
15 | 0.5 | 0.2 | 6.1 | 1.9 | 9600 | 5.8 | 0.4 | 0.4 | 0.9 | 0.9 | – | – | – | – | – | Cn1ccc(-c2cnc(Nc3ccnc(-c4cnn(S(=O)(=O)C5CC5)c4)n3)cc2NC[C@H]2CC[C@](C)(O)CC2)n1 [Example 48, (1r,4r)-4-(((2-((2-(1-(Cyclopropylsulfonyl)-1H-pyrazol-4-yl)pyrimidin-4-yl)amino)-5-(1-methyl-1H-pyrazol-3-yl)pyridin-4-yl)amino)methyl)-1-methylcyclohexan-1-ol]
16 | – | 0.5 | – | 1 | – | 8.3 | – | 1 | – | 2 | – | – | – | – | – | Cn1nc(-c2cnc(Nc3ccnc(-c4cnn(S(=O)(=O)C5CC5)c4)n3)cc2NN2CCC(O)CC2)cc1C(F)(F)F [Example 160, 1-((2-((2-(1-(Cyclopropylsulfonyl)-1H-pyrazol-4-yl)pyrimidin-4-yl)amino)-5-(1-methyl-5-(trifluoromethyl)-1H-pyrazol-3-yl)pyridin-4-yl)amino)piperidin-4-ol]
